Reference: patent US7183459B2, “Dwf7 mutants” (The Arizona Board of Regents on Behalf of the University of …, priority 2000, dated 2007)
Read-outs that look alike come from different tables or passages of the source.

Legend:
dwf7-2 = assay: Feeding of BR biosynthetic intermediates to dwf7-2 inflorescences; format: in vivo, Arabidopsis thaliana; conditions: for biochemical complementation of the dwf7-2 allele: in vivo; for elongation of pedicels and internodes of dwf7-2: 3-week-old inflorescences of dwf7-2
Protocol: (§1) Feeding experiments using biosynthetic intermediates were performed with 3-week-old mutant plants. The intermediates tested were diluted to the desired concentration with water containing 0.01% Tween 20. Two microliters of each brassinosteroid (BR) solution was applied daily to the shoot tips of plants by using a micro pipettman. After 1 week of treatment, total growth of inflorescence and pedicels was measured to the nearest millimeter (n=15).
A second allele of dwf7 was identified among 43 dwarf mutants isolated by screening >50,000 M2 seeds of an EMS mutant population.
(§2) Similarly, 3-week-old inflorescences of dwf7-2 were tested with 22-OHCR, 6-deoxoCT, teasterone, and BL.

[1] = tested on: wild-type Arabidopsis seedlings; assay: Effects of compactin and MVA on growth of seedlings in liquid media; format: in vivo
dwf7-1 plants [2] = assay: GA3 spray on 3-week-old dwf7-1 plants; format: in vivo, Arabidopsis thaliana; conditions: 0.1 mM GA3 sprayed
wild-type plants = assay: GA3 spray on wild-type plants; format: in vivo, Arabidopsis thaliana; conditions: 0.1 mM GA3 sprayed
Description: The overall morphology of plants is dependent on three factors: cell size, shape, and number (Cosgrove (1997) Plant Cell 9:1031–1041). Various signals modulate these factors. Environmental signals, such as water, temperature, and light, are transduced to invoke internal hormone signals, including auxins, gibberellins, and BRs. These signals then trigger the cell elongation process, including but not limited to cell wall loosening by xyloglucan endotransglycosylases and expansins. Thus, a block in any of the signal transduction cascades from the environmental signals to the cell elongation process could result in dwarfism. Mutants resistant to or deficient in classic hormones, such as auxin (e.g., auxin resistant2 [axr2]; Timpte (1992) Genetics 138:1239–1249) and gibberellin ([ga1 to ga5 and gai]; Koornneef and van der Veen (1980) Theor. Appl. Genet. 58:257-263; Koornneef et al. (1985) Physiol. Plant. 65:33–39), often result in dwarfism. Thus, we first tested whether dwf7 is either rescued by or resistant to exogenous application of these hormones. […] The reduction of hypocotyl length in dwf7-1 was rescued by the application of BL (FIG. 3). Both wild-type and dwf7-1 plants responded to BL, but dwf7-1 plants were hypersensitive. The length of dwf7-1 hypocotyls was increased 160% in response to 1 nM BL as compared with the untreated control, whereas the wild-type responded marginally (5%).

dwf7-1 plants [3] = assay: Feeding of BR biosynthetic intermediates to shoot tips of 3-week-old dwf7-1 plants; format: in vivo, Arabidopsis thaliana; conditions: for elongation of dwf7-1 pedicels in response to BRs: FIG. 4 legend, versus water, n>15
Protocol: as §1
To pinpoint the defective step in the BR biosynthetic pathway, dwf7-1 mutants were treated with BR biosynthetic intermediates. Due to undetectable bioactivity of some early intermediates (CR to 6-oxocampestanol) in bioassays (Fujioka et al. 1995; Choe et al. (1998) Plant Cell 10:231–243), these were not used. Instead, three biologically active compounds were chosen, 22-OHCR, 6-deoxoCT, and BL, for these feeding tests (see FIG. 1). Because the 22α-hydroxylation reaction is reported to be mediated by DWF4 (Choe et al. (1998) Plant Cell 10:231–243), biochemical complementation of dwf mutants other than dwf4 by 22-OHCR places the defective step upstream of CR.
as §2

[4] = tested on: Wassilewskija-2 (Ws-2) wild type hypocotyls
Protocol: (§3) Biochemical complementation of dwf7-1 plants with different concentrations of brassinolide (BL) was performed in liquid media. BL-supplemented (control, 10^−9, 10^−8, and 10^−7 M) sterile liquid media (1.5 mL) was dispensed into wells of a 24-well plate (Corning Co., Corning, N.Y.). Three seedlings, germinated on agar-solidified media, were transferred into each well. After a week of growth with continuous shaking (230 rpm), the seedlings were lightly stained with toluidine blue, and hypocotyls and roots were measured to the nearest millimeter.

[5] = tested on: Δ^7 sterol C-5 desaturase; conditions: enzyme prepared from maize microsomes; cited from earlier work

Protocol for dwf7-1 hypocotyls: as §3

Compound: CC(C)[C@H](C)C[C@H](O)[C@@H](C)[C@H]1CC[C@H]2[C@@H]3CC(=O)[C@H]4C[C@@H](O)CC[C@]4(C)[C@H]3CC[C@]12C [cathasterone]
- biochemical complementation of the dwf7-2 allele (dwf7-2): biochemically complemented

Compound: CC[C@H](C)C(=O)O[C@H]1CCC=C2C=C[C@H](C)[C@H](CC[C@@H]3C[C@@H](O)CC(=O)O3)[C@H]21 [compactin, mevastatin]
- growth of seedlings ([1]; 10 μM compactin, liquid media): almost completely inhibited

Compound: C=C1C[C@]23C[C@@]1(O)CC[C@H]2[C@@]12C=C[C@H](O)[C@@](C)(C(=O)O1)[C@H]2[C@@H]3C(=O)O [GA3]
- rescue of the dwf7-1 phenotype (dwf7-1 plants [2]): did not rescue
- increase of inflorescence height (dwf7-1 plants [2]; 3-week-old dwf7-1 plants): < 10%
- increase of inflorescence height (wild-type plants): < 10%

Compound: C[C@@](O)(CCO)CC(=O)O [MVA, mevalonic acid]
- reversal of compactin growth inhibition ([1]; 4.5 mM MVA applied simultaneously with 10 μM compactin): restored to the level of controls

Compound: CC(C)[C@H](C)C[C@H](O)[C@@H](C)[C@H]1CC[C@H]2[C@@H]3CC=C4C[C@@H](O)CC[C@]4(C)[C@H]3CC[C@]12C [22-OHCR, 22 α-hydroxycampesterol]
- elongation of pedicels and internodes of dwf7-2 (dwf7-2): significant elongation
- biochemical complementation of the dwf7-2 allele (dwf7-2): biochemically complemented
- elongation of dwf7-1 pedicels in response to BRs (dwf7-1 plants [3]): greater than twofold
- growth of treated dwf7-1 pedicels relative to wild-type (dwf7-1 plants [3]; in vivo): greater than or equal to that of the wild-type
- rescue of dwf7-1 by exogenous application (dwf7-1 plants [3]; in vivo): Rescue

Compound: CC(C)[C@H](C)[C@@H](O)[C@H](O)[C@@H](C)[C@H]1CC[C@H]2[C@@H]3COC(=O)[C@H]4C[C@H](O)[C@H](O)C[C@]4(C)[C@H]3CC[C@]12C [BL, brassinolide]
- elongation of pedicels and internodes of dwf7-2 (dwf7-2): significant elongation
- elongation of dwf7-1 hypocotyls (increase) (dwf7-1 hypocotyls; 1 nM BL, BL-supplemented liquid media, light-grown, compared with untreated control): 160%
- rescue of dwf7-1 hypocotyls to wild-type length (dwf7-1 hypocotyls; 10 nM (10^-8 M) BL): completely rescued
- rescue of dwf7-1 hypocotyls to wild-type length (dwf7-1 hypocotyls; 100 nM BL): completely rescued
- response of dwf7-1 hypocotyls to BL (dwf7-1 hypocotyls; 10^-9 M BL, light-grown (FIG. 3)): responds
- elongation of dwf7-1 pedicels in response to BRs (dwf7-1 plants [3]): greater than twofold
- length of cells in dwf7-1 stem after BL treatment (dwf7-1 plants [3]; daily application of 10^-7 M BL for 1 week): converted to the length of the wild type
- growth of treated dwf7-1 pedicels relative to wild-type (dwf7-1 plants [3]; in vivo): greater than or equal to that of the wild-type
- wild-type hypocotyl increase ([4]; 1 nM BL, BL-supplemented liquid media, light-grown): 5%
- BL concentration giving the strongest response of the wild type ([4]; hypocotyl length, liquid media (FIG. 3)): 100 nM

Compound: [C-]#[O+] [carbon monoxide]
- effect on enzyme [5]: insensitive

Compound: CC(C)[C@H](C)[C@@H](O)[C@H](O)[C@@H](C)[C@H]1CC[C@H]2[C@@H]3CC(=O)[C@H]4C[C@@H](O)CC[C@]4(C)[C@H]3CC[C@]12C [teasterone]
- elongation of pedicels and internodes of dwf7-2 (dwf7-2): significant elongation

Compound: CC(C)[C@H](C)C[C@H](O)[C@@H](C)[C@H]1CC[C@H]2[C@@H]3CC[C@H]4C[C@@H](O)CC[C@]4(C)[C@H]3CC[C@]12C [6-deoxoCT]
- elongation of pedicels and internodes of dwf7-2 (dwf7-2): significant elongation
- elongation of dwf7-1 pedicels in response to BRs (dwf7-1 plants [3]): greater than twofold
